Measurements as given in PMC10388299, “Design, Synthesis, and Biological Evaluation of 2-Hydroxy-4-phenylthiophene-3-carbonitrile as PD-L1 Antagonist and Its Comparison to Available Small Molecular PD-L1 Inhibitors” (Journal of Medicinal Chemistry, 2023).
Entries after “also recorded” stand apart in the source; their conditions may differ. Counter-ions that a name gives are not always drawn. Like-named read-outs stand apart in the source and are kept apart here.

Tests used:
PD-L1 [1] = molecular target: T1, PD-L1 (Homo sapiens, UniProt Q9NZQ7); assay: NMR binding assay (1H and 1H-15N HMQC); details: molar ratio 1:1
T1 construct: The PD-L1 protein (18–134) was expressed in the Escherichia coli BL21 (DE3); made in house; host or cells: Escherichia coli BL21 (DE3)
T1 sequence (Q9NZQ7 18-134): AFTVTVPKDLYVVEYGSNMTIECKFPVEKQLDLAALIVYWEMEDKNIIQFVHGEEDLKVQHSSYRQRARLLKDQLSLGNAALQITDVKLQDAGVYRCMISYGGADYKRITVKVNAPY
From the text: To investigate if our synthesized analogs are capable of disrupting PD-1/PD-L1 binding, we performed our previously described nuclear magnetic resonance (NMR) assay.[16] […] The PD-L1 dimerization causes peaks of the ^1H aliphatic part PD-L1 spectrum to flatten (peak at −0.4 ppm) or disappear in the case of peaks from ^1H–^15N HMQC spectrum. Dimerization of PD-L1, in turn, prevents its binding to the PD-1.
For NMR measurements, the buffer was exchanged by gel filtration to PBS pH 7.4. 10% (v/v) of D2O was added to the samples to provide the lock signal. All spectra were recorded at 300 K using a Bruker Avance III 600 MHz spectrometer equipped with the nitrogen cryo-probe head.
Determination of binding of compounds to PD-L1 was carried out with the ^1H NMR. […] The molecular weight of each complex was estimated from relaxation time analysis, which can only be explained by the compound-induced PD-L1 dimerization. No significant changes were observed upon the addition of the PD-1 with the tested compounds.

PD-L1 [2] = molecular target: T1, PD-L1; assay: Microscale thermophoresis (MST) affinity assay; type: binding
Description: The PD-L1 protein (18–134) was expressed in the Escherichia coli BL21 (DE3) and purified as described previously (Zak et al., 2016).[8] Protein expression was induced with 1 mM isopropyl β-D-1-thiogalactopyranosid (IPTG) at OD600 of 0.8 and the cells were cultured overnight at 37 °C. Afterward protein was refolded by drop-wise dilution into solution containing 0.1 M Tris pH 8.0, 1 M L-arginine hydrochloride, 0.25 mM oxidized glutathione, and 0.25 mM reduced glutathione. After refolding, protein was dialyzed 3 times against buffer containing 10 mM Tris pH 8.0 and 20 mM NaCl. Finally, PD-L1 was purified by SEC (size-exclusion chromatography) on HiLoad 26/600 Superdex 75 column (GE Healthcare) equilibrated with PBS pH 7.4.
PD-L1 was expressed as for NMR experiment. It was diluted to 10 μM and labelled with Protein Labeling Kit RED-NHS 2nd Generation from Nanotemper according to the manufacturer’s guidelines. The degree of labelling for PD-L1 was 0.74, which is with agreement with the protocol. Labelled PD-L1 at 100 nM concentration was then mixed with independent series of 4a and 9a compound dilution series (n = 4) and incubated for 30 min at RT. Next, samples were transferred to dedicated 384-well plate and measured on Diantus equipped with pico detector using auto-excitation and 5 s pulse (Nanotemper) for the affinity measurements. The results were exported, averaged, and fitted in Mathematica 12 using following equations: [drawing 1] where: FB—fraction bound, [A]—concentration of unlabeled titrated partner, [B]—concentration of fluorescent labeled partner that is fixed, [AB]—concentration of bound complex of A and B, Kd—equilibrium dissociation constant.

[3] = Experimental lipophilicity of 18F tracers; type: physicochemical; details: for logP / lipophilicity (in words): 18F tracer; for logP / logD: triplicate; for logP: read-out: experimental log P; for logD: pH 7.4, 18F tracer, read-out: experimental log D7.4
[4] = In vitro stability in formulation solution; type: physicochemical; details: for stability in formulation solution (4h): supplementary csv, unit not given; for stability in formulation solution after 4 h: radiochemical purity by TLC, triplicate
Description: (§1) In vitro stability of [^18F]4a and [^18F]9a was evaluated in Tween-80 or PBS (original diluent) and serum. After purification, samples of tracers were mixed with equal volumes of the formulated tracer and solution in which stability was evaluated (100 μL tracer solution with 100 μL Tween-80/PBS) and measured every 30 min for a 4 h period. The radiochemical purity (RCP) of labeled products was measured using thin-layer chromatography (TLC) (silica TLC plates on aluminum, MerckMilipore, USA). The TLCs were developed with appropriate MeOH/DCM eluent system; 10% MeOH/DCM + NH3 for [^18F]4a and 10% MeOH/DCM for [^18F]9a. The distribution of the radioactivity among the TLC plate was measured on GE Amersham Typhoon Scanner using phosphorus plates and ImageQuant TL 1D software for data processing (both GE Healthcare Life Science, USA). The experiment was performed in triplicate.

PD-1/PD-L1 complex = molecular target: T2, PD-1/PD-L1 complex (Homo sapiens, UniProt Q9NZQ7); assay: HTRF PD-1/PD-L1 assay (Cisbio Human PD1/PD-L1 biochemical binding assay); details: disruption of the PD-1/PD-L1 complex; two independent dilution series
T2 construct: purchased Cisbio Bioassays
T2 sequence (Q9NZQ7 19-238 limits assumed, one chain of several): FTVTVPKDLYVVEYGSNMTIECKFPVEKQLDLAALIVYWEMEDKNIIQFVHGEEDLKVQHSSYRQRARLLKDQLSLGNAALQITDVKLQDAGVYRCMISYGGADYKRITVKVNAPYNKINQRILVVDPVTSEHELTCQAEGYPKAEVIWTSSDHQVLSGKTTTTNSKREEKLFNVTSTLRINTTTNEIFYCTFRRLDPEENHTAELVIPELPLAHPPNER
Description: Presence of inhibitors (small molecules, proteins, and so forth) that disrupt the binding decreases the resulting signal allowing the assessment of the inhibitory activity of tested inhibitors via IC50 (the half maximal inhibitory concentration).
The HTRF assay was performed using the certified Cis-Bio assay kit at 20 μL final volume using their standard protocol as described by Musielak et al.[34] Measurements were performed on individual dilution series to determine the half maximal inhibitory concentration (IC50) of tested compounds. After mixing all components according to the Cis-Bio protocol, the plate was incubated for 2 h at RT. […] For the compounds with IC50 values that were too high due to, e.g., solubility issues, a “dissociation value” at the concentration of 50 μM is presented for the sake of comparability to other inhibitors.

PD-1/PD-L1 = molecular target: T3, PD-1/PD-L1 (Homo sapiens, UniProt Q9NZQ7); assay: Promega PD-1/PD-L1 immune checkpoint blockade assay (Jurkat reporter T cells + aAPCs); type: cell-based; details: Jurkat reporter T cells cocultured with aAPCs; an estimation because of cytotoxicity at higher concentrations
T3 construct: host or cells: CHO-K1 aAPCs (PD-L1) and Jurkat effector cells (PD-1)
T3 sequence (Q9NZQ7 19-290): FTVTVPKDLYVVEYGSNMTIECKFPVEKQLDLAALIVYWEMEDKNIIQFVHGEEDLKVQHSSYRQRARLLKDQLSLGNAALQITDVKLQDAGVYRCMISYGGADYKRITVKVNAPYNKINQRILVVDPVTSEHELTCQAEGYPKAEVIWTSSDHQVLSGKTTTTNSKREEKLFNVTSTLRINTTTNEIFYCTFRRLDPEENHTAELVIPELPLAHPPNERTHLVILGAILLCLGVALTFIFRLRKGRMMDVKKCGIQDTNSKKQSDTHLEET
Description: Additionally, aAPCs and ECs were propagated in a constant presence of hygromycin B (50 μg/mL) and G418 (250 μg/mL) to provide a stable expression of the introduced genetic constructs.
The aAPCs were seeded in white flat bottom 96-well plates at the density of 10 000 cells/well in the culture medium 24 h before the assay and grown overnight in a 5% CO2 37 °C incubator. On the day of the experiment, serial dilutions of tested compounds were prepared first in DMSO and then formulated in RPMI 1640-containing 1% FBS to keep the constant DMSO concentration of 0.1% (v/v). As a negative control, DMSO was used in assay buffer at the concentration of 0.1% (v/v). As a positive control, a serial dilution of durvalumab (an anti-PD-L1 antibody) in assay buffer was used. Meanwhile, the medium of the aAPCs cells was removed, and the compounds’ dilutions were added to the plate (40 μL/well). […] The cell suspension was distributed over the inner 60 wells of the assay plate (20 000 cells/well, 40 μL). The plates were incubated for 6 h in a 5% CO2 incubator at 37 °C. Once the assay time was over, the plate was taken out of the incubator to equilibrate to room temperature. Before measurements, a 75 μL per well of Bio-Glo luciferase substrate was added to the inner 60 wells of the plate. […] The measurement was done on a Spark microplate reader (Tecan), using the standard settings for luminescence reading.

[5] = In vitro stability in human serum; type: in vitro ADME; details: for stability in serum (4h): supplementary csv, unit not given; for stability in serum after 4 h: radiochemical purity by TLC, triplicate
Description: as §1

PD-L1 [6] = molecular target: T1, PD-L1; design: method as in PMID 17985865; details: by means of NMR, HTRF, and cellular assays; cited from earlier work
murine PD-L1 = tested on: murine PD-L1; design: method as in PMID 17985865; details: by means of NMR, HTRF, and cellular assays; cited from earlier work
[7] = tested on: ES2 (ovarian carcinoma) PD-L1^+/– tumor tissue sections; assay: Autoradiography with ES2 PD-L1+/- tumor tissue sections; type: binding, human
Description: (§2) Formalin-fixed paraffin-embedded xenograft tumors (ES2 PD-L1^+/– and H358 PD-L1^+/–) were cut into 4 μm slices and placed on the glass slides. Before each immunohistochemistry and autoradiography experiment, tissue slides were deparaffinized by oven incubation (min 1 h at 60 °C) and xylene washes, then rehydrated through graded alcohol and distilled water. Additionally, heat-induced antigen retrieval with 10 mM citrate buffer pH = 6.0 was performed (15 min 400 W). Snap-frozen human tonsil tissue was a gift from the Pathology Department (UMCG). Before each experiment, they were incubated in cold acetone for 10 min.
(§3) For autoradiography, antigen retrieval and acetone wash were followed by 30 min of incubation with a freshly formulated tracer at a concentration of 0.2 MBq/mL. After washing twice with cold PBS and once with water, slides were left to dry and exposed to phosphorus plates. The image was recorded on GE Amersham Typhoon Biomolecular Imager and analyzed with ImageQuant TL 1D software (both GE Healthcare Life Science, USA).

[8] = tested on: H358 (lung adenocarcinoma) PD-L1^+/– tumor tissue sections; assay: Autoradiography with H358 PD-L1+/- tumor tissue sections; type: binding, human; details: PD-L1+ vs counterpart H358 tumor sections
Description: as §2, §3

PD-L1 [9] = details: PD-L1 nanobody, ca. 15 kDa; cited from earlier work
[10] = MST, labelled PD-L1 100 nM, n = 4, read-out: kD to hPD-L1
[11] = supplementary csv, unit inferred, read-out: MST Kd

With `Cc1c(COc2cc(OCc3cccc(C#N)c3)c(CN3CC(O)C[C@@H]3C(=O)O)cc2Cl)cccc1-c1ccc2c(c1)OCCO2` (stereo in doubt) [9b, (2R,4S)-1-(5-Chloro-2-((3-cyanobenzyl)oxy)-4-((3-(2,3-dihydrobenzo[b][1,4]dioxin-6-yl)-2-methylbenzyl)oxy)benzyl)-4-hydroxypyrrolidine-2-carboxylic Acid, reference compound] the “effect on PD-L1 in 1H NMR and 1H-15N HMQC spectra” value (PD-L1 [1]) was “induces dimerization of PD-L1”.

`N#Cc1c(-c2ccc(F)cc2)csc1OCc1ccc(CN)cc1` [4a, 2-((4-(Aminomethyl)benzyl)oxy)-4-(4-fluorophenyl)thiophene-3-carbonitrile Hydrochloride] showed a Kd (PD-L1 [2]; [10]) of about 27 nM, a Kd (PD-L1 [2]; [11]) of 26.9 nM and a logP [3] of 3.6. The logD [3] was 3.9, the “stability in formulation solution (4h)” value [4] was 97.5 and the IC50 (PD-1/PD-L1 complex) was 4.97 nM. The “effect on PD-L1 in 1H NMR and 1H-15N HMQC spectra” value (PD-L1 [1]) was “induces dimerization of PD-L1”, the EC50 (PD-1/PD-L1) was 2700 nM and the “stability in serum (4h)” value [5] was 93.9.

With `Cc1c(COc2cc(OCc3cccc(C#N)c3)c(CN3C[C@@H](F)C[C@@H]3C(=O)O)cc2Cl)cccc1-c1ccc2c(c1)OCCO2` [9a, (2R,4S)-1-(5-Chloro-2-((3-cyanobenzyl)oxy)-4-((3-(2,3-dihydrobenzo[b][1,4]dioxin-6-yl)-2-methylbenzyl)oxy)benzyl)-4-fluoropyrrolidine-2-carboxylic Acid] the Kd (PD-L1 [2]; [10]) was about 8 nM, the Kd (PD-L1 [2]; [11]) was 8.36 nM and the logP [3] was 5.2. For the same compound, the logD [3] was 6.5, the “stability in formulation solution (4h)” value [4] was 97.3 and the IC50 (PD-1/PD-L1 complex) was 2.01 nM. For the same compound, the EC50 (PD-1/PD-L1) was 880 nM and the “stability in serum (4h)” value [5] was 88.7.

For `C[C@@H](O)[C@H](NC(=O)N[C@@H](CC(N)=O)c1nc([C@@H](N)CO)no1)C(=O)O` [CA-170], the “direct binding to human PD-L1” value (PD-L1 [6]) is listed as “not a direct binder” and the “direct binding to murine PD-L1” value (murine PD-L1) is listed as “not a direct binder”.

With `N#Cc1c(-c2ccc([18F])cc2)csc1OCc1ccc(CN)cc1` [[^18F]4a] the “lipophilicity (in words)” value [3] was “moderate lipophilicity”, the logP [3] was 3.6 ± 0.4 and the logD [3] was 3.9 ± 0.9. The “stability in formulation solution after 4 h” value [4] was 97.5 ± 0.5%, the background uptake ([7]; compared with [^18F]9a) was “lower background uptake than [^18F]9a” and the “discrimination between wild-type and knock-out ES2 slides” value ([7]; paraffin-embedded sections) was “failed to discriminate between wild-type and knock-out; also recorded: unable to bind specifically”. For the same compound, the “higher uptake in PD-L1+ H358 tumors” value [8] was 40–55%, the “stability in serum after 4 h” value [5] was 93.9 ± 0.5% and the “stability in human serum, minimal value” [5] was 93%.

For `Cc1c(COc2cc(OCc3cccc(C#N)c3)c(CN3C[C@@H]([18F])C[C@@H]3C(=O)O)cc2Cl)cccc1-c1ccc2c(c1)OCCO2` [[^18F]9a], the “lipophilicity (in words)” value [3] was “high lipophilicity”, the logP [3] was 5.2 ± 0.6 and the logD [3] was 6.5 ± 0.2. The “stability in formulation solution after 4 h” value [4] was 97.3 ± 1.1%, the “higher uptake in PD-L1+ H358 tumors” value [8] was 40–55% and the “stability in serum after 4 h” value [5] was 88.7 ± 5.7%. The “stability in human serum, minimal value” [5] was 82%.

In the case of KN035: PD-L1 nanobody, ca. 15 kDa, the pKd (PD-L1 [9]) is given as 8.5.
